Where no end group is shown, it is not given here.
Test system: EL-4 cells labeled with 51Cr and pulsed with the peptide Flu366-374
Conditions: administered alone using the osmotic pump (100 µg peptide or 10^5 U IFN-α, subcutaneous, 3-day release); spleen 7 days after administration, 5 days re-stimulation; Fig. 1(A)

In the case of “ASNESMETM [peptide, Ala-Ser-Asn-Glu-Ser-Met-Glu-Thr-Met]”, the “peptide-specific CTL induction (cytotoxic activity for peptide-pulsed EL-4 cells)” value is reported as “no peptide-specific CTL was induced”.
